The subject of the assay is Plasmodium berghei. Nature of the assay: Luciferase/luciferin-expressing antifolate-resistant parasites were used to infect a culture of HepG2 cells that were pre-incubated with compounds. Infected hepatocytes emit light due to the luciferase reaction. Assay results are presented as the percent inhibition of light emission compared to control. […]. As to conditions: sporozoite; for IC90: read-out: LUCIFERASE INFECTION ASSAY - IC90. Format: functional.

Where [1] appears, read: read-out: LUCIFERASE INFECTION ASSAY - IC50.

Structures are written as SMILES.

The term IC50 denotes the midpoint of a concentration-inhibition curve. What is called IC90 is the concentration needed for an effect of 90%. For `CCOC(=O)/C=C1\SCC(=O)N1CCOC(=O)c1ccccc1`, the IC90 was greater than 10 µM. Under setting [1], the IC50 is greater than 10 µM.
Regarding `CCOC(=O)C1=C(C)NC(C)=C(C(=O)OCC)C1C(=O)OCC(=O)NC12CC3CC(CC(C3)C1)C2`, the IC90 is greater than 10 µM. Moreover, where the note is “HEPG2TOX_HILL_SLOPE 2.54, HEPG2TOX_R_SQUARED 0.735, read-out: LUCIFERASE INFECTION ASSAY - IC50”, the IC50 is greater than 10 µM.
As to `C=CCN(C(=O)/C(=C/c1ccccc1)n1nnnc1C)c1nc(-c2ccccc2)cs1`, the IC90 amounted to 5.71 µM. The IC50 (HEPG2TOX_HILL_SLOPE 12.1, HEPG2TOX_R_SQUARED 0.931, PBLUC_HILL_SLOPE 6.74, 7.08, PBLUC_R_SQUARED 0.881, 0.796, read-out: LUCIFERASE INFECTION ASSAY - IC50) is 4.16 µM.
Turning to `CCn1c(C)nc2cc(C(=O)NNC(=O)/C=C/c3cccc(C(F)(F)F)c3)ccc21`, the IC90 was greater than 10 µM. Moreover, the IC50 under setting [1] was greater than 10 µM.
Regarding `NC(CCc1ccccc1)c1csc(Nc2cc(NCCCO)ncn2)n1` (centres undefined), the IC90 was greater than 8.58 µM. In addition, under “HEPG2TOX_HILL_SLOPE 1.38, HEPG2TOX_R_SQUARED 0.93, PBLUC_HILL_SLOPE 3.41, PBLUC_R_SQUARED 0.149, read-out: LUCIFERASE INFECTION ASSAY - IC50”, the IC50 was determined as 6.73 µM.
In the case of `Cc1noc(C)c1COC(=O)CC(c1ccccc1)c1ccccc1`, the IC90 is greater than 10 µM. Besides, under setting [1], the IC50 was greater than 10 µM.
Regarding `O=C(Nc1nc2ccccc2[nH]1)c1ccc(S(=O)(=O)N2CCc3ccccc3C2)cc1`, the IC90 is greater than 10 µM. Where the note is “FFLUC_HILL_SLOPE 9.27, FFLUC_R_SQUARED 0.301, PBLUC_HILL_SLOPE 0.89, PBLUC_R_SQUARED 0.688, read-out: LUCIFERASE INFECTION ASSAY - IC50”, the 50% inhibitory concentration (IC50) is 4.81 µM.
Take `Cc1cccc(OCC(=O)Nc2nc(C)c(Cc3ccc4c(c3)OCO4)s2)c1`: the IC90 was greater than 10 µM. The IC50 (PBLUC_HILL_SLOPE 0.768, PBLUC_R_SQUARED 0.0907, read-out: LUCIFERASE INFECTION ASSAY - IC50) is greater than 10 µM.
With `NC(=O)NC(CC(=O)NCc1cccs1)c1cccc(Oc2ccccc2)c1` (centres undefined), the IC90 is greater than 10 µM. Also, the IC50 (FFLUC_HILL_SLOPE 0.589, FFLUC_R_SQUARED 0.0522, PBLUC_HILL_SLOPE 12.1, PBLUC_R_SQUARED 0.469, read-out: LUCIFERASE INFECTION ASSAY - IC50) was found to be 9.25 µM.
Take `O=[N+]([O-])c1ccc2c(c1)S(=O)(=O)CC2Sc1cccs1` (centres undefined): the IC90 is greater than 10.1 µM. The IC50 (FFLUC_HILL_SLOPE 0.919, FFLUC_R_SQUARED 0.527, PBLUC_HILL_SLOPE 1.82, PBLUC_R_SQUARED 0.11, read-out: LUCIFERASE INFECTION ASSAY - IC50) is greater than 10.1 µM.
In the case of `Cc1ccc(O)c(-c2cc(-c3ccccc3)c3ccccc3n2)c1`, the IC90 is greater than 10 µM. The concentration for half-maximal inhibition (IC50) under setting [1] is greater than 10 µM.
As to `Clc1cc2c(c3ncccc13)OCN(C1CCCC1)C2`, the IC90 was 2.79 µM. Besides, the IC50 (FFLUC_HILL_SLOPE 11.1, FFLUC_R_SQUARED 0.223, HEPG2TOX_HILL_SLOPE 2.6, HEPG2TOX_R_SQUARED 0.787, PBLUC_HILL_SLOPE 4.7, PBLUC_R_SQUARED 0.818, read-out: LUCIFERASE INFECTION ASSAY - IC50) came to 1.75 µM.
On to `c1ccc(-n2ncc3c(N4CCCC4c4ccc5c(c4)OCCO5)ncnc32)cc1` (centres undefined), for which the IC90 was greater than 10 µM. Further, under “HEPG2TOX_HILL_SLOPE 2.6, HEPG2TOX_R_SQUARED 0.193, PBLUC_HILL_SLOPE 3.44, PBLUC_R_SQUARED 0.735, read-out: LUCIFERASE INFECTION ASSAY - IC50”, the IC50 amounted to 7.29 µM.
Take `O=C(Nc1ncc(Cc2cccc(Cl)c2Cl)s1)c1ccc(-n2cncn2)nc1`: the IC90 is greater than 10 µM. Moreover, under “FFLUC_HILL_SLOPE 10.4, FFLUC_R_SQUARED 0.281, HEPG2TOX_HILL_SLOPE 2.29, HEPG2TOX_R_SQUARED 0.935, PBLUC_HILL_SLOPE 1.7, PBLUC_R_SQUARED 0.542, read-out: LUCIFERASE INFECTION ASSAY - IC50”, the IC50 is 3.51 µM.
As to `O=C1NC2(CCOc3ccccc32)C(=O)N1CC(=O)N1N=C(c2ccc(Cl)cc2)CC1c1ccco1` (centres undefined), the IC90 was greater than 10 µM. Also, the IC50 (PBLUC_HILL_SLOPE 2.24, PBLUC_R_SQUARED 0.678, read-out: LUCIFERASE INFECTION ASSAY - IC50) stood at 5.4 µM.
Turning to `Cc1sc2nc3c4ccccc4c(NCc4ccccc4CN4CCOCC4)nn3c(=O)c2c1C`, the IC90 was greater than 10 µM. For the same molecule, the IC50 (HEPG2TOX_HILL_SLOPE 7.8, HEPG2TOX_R_SQUARED 0.205, PBLUC_HILL_SLOPE 3, PBLUC_R_SQUARED 0.458, read-out: LUCIFERASE INFECTION ASSAY - IC50) was 5.95 µM.
Regarding `O=C(Nc1nc2c(s1)CCCC2)c1cc(F)c(F)c(F)c1F`, the IC90 turned out to be 0.624 µM. Besides, the IC50 under setting [1] came out at 0.081 µM.
As for `Cc1cc(C(=O)COc2cccnc2[N+](=O)[O-])c(C)n1-c1ccc2c(c1)OCO2`, the IC90 was greater than 10 µM. The IC50 (PBLUC_HILL_SLOPE 1.7, PBLUC_R_SQUARED 0.197, read-out: LUCIFERASE INFECTION ASSAY - IC50) amounted to 8.75 µM.
Take `CCc1ccc(NC(=O)COc2c(Cl)cc(Cl)c3ccc(C)nc23)cc1`: the IC90 came to 1.31 µM. Where the note is “HEPG2TOX_HILL_SLOPE 1.5, HEPG2TOX_R_SQUARED 0.996, PBLUC_HILL_SLOPE 3.18, PBLUC_R_SQUARED 0.331, read-out: LUCIFERASE INFECTION ASSAY - IC50”, the IC50 was determined as 0.657 µM.
Consider `CNC(=O)c1ccc(CN(Cc2ccco2)c2nc(C(F)(F)F)nc3ccccc23)cc1`, for which the IC90 came to 3.56 µM. Also, under “HEPG2TOX_HILL_SLOPE 6.45, HEPG2TOX_R_SQUARED 0.103, PBLUC_HILL_SLOPE 3.77, PBLUC_R_SQUARED 0.847, read-out: LUCIFERASE INFECTION ASSAY - IC50”, the IC50 was found to be 1.99 µM.
Consider `CC1CCCCC1Nc1ncnc2sccc12` (centres undefined), for which the 90% effect concentration (IC90) was greater than 10 µM. The IC50 (HEPG2TOX_HILL_SLOPE 0.142, HEPG2TOX_R_SQUARED 0.36, PBLUC_HILL_SLOPE 4.81, PBLUC_R_SQUARED 0.31, read-out: LUCIFERASE INFECTION ASSAY - IC50) is 9.81 µM.
In the case of `COCCCn1c(SCc2ccc(C)cc2)nnc1-c1ccc(C(C)(C)C)cc1`, the concentration for an effect of 90% (IC90) was greater than 8.06 µM. For the same molecule, the IC50 (PBLUC_HILL_SLOPE 1.28, PBLUC_R_SQUARED 0.571, read-out: LUCIFERASE INFECTION ASSAY - IC50) was greater than 8.06 µM.
For `Cc1ccc2nc(NC(=O)c3ccc(C(F)(F)F)cc3)c(C(=O)NC3CCCC3)n2c1`, the IC90 was 1.95 µM. The IC50 under setting [1] was found to be 0.593 µM.
Take `CCCCSc1scc(-c2ccc(Cl)c(Cl)c2)c1C#N`: the IC90 was greater than 9.64 µM. The IC50 (HEPG2TOX_HILL_SLOPE 94.8, HEPG2TOX_R_SQUARED 0.896, read-out: LUCIFERASE INFECTION ASSAY - IC50) was greater than 9.64 µM.
In the case of `Cc1ccc2c(c1)CCCN2C(=S)Nc1cccc(C(F)(F)F)c1`, the IC90 is greater than 9.42 µM. Besides, under setting [1], the IC50 was greater than 9.42 µM.
Consider `CC(C)c1ccc(NC(=O)C2=CN3CCN(Cc4ccc(F)cc4)C(=O)N=C3O2)cc1`, for which the IC90 was greater than 10 µM. Besides, under setting [1], the IC50 is greater than 10 µM.
Turning to `CCOc1ccccc1N(C(=O)C1CC=CCC1)c1nc2ccccc2s1` (centres undefined), the IC90 is greater than 10 µM. Besides, under “HEPG2TOX_HILL_SLOPE 6.4, HEPG2TOX_R_SQUARED 0.335, PBLUC_HILL_SLOPE 2.71, PBLUC_R_SQUARED 0.0983, read-out: LUCIFERASE INFECTION ASSAY - IC50”, the IC50 amounted to 7.73 µM.
As for `CC(C)CN1C(=O)N(Cc2ccccc2)C2(CCN(C3Cc4ccccc4C3)CC2)C1=O`, the IC90 was greater than 7.65 µM. For the same molecule, the IC50 (PBLUC_HILL_SLOPE 12.6, PBLUC_R_SQUARED 0.313, read-out: LUCIFERASE INFECTION ASSAY - IC50) came to 7.2 µM.
Turning to `O=C1CSC(=N/N=C2\SC(CC(=O)Nc3ccc(Br)cc3)C(=O)N2Cc2ccco2)N1` (centres undefined), the IC90 is greater than 10 µM. The IC50 (HEPG2TOX_HILL_SLOPE 1.67, HEPG2TOX_R_SQUARED 0.878, PBLUC_HILL_SLOPE 0.95, PBLUC_R_SQUARED 0.607, read-out: LUCIFERASE INFECTION ASSAY - IC50) was 5.04 µM.
As for `CC(C)c1ccc(-c2noc(CCC(=O)Nc3ccn(C)n3)n2)cc1`, the IC90 is greater than 10 µM. In addition, under setting [1], the IC50 is greater than 10 µM.
For `O=C(Nc1ccc(OCc2ccccc2)cc1)c1csc(C(O)c2cccc(Cl)c2)n1` (centres undefined), the IC90 is 3.73 µM. Further, for the setting “HEPG2TOX_HILL_SLOPE 2.48, HEPG2TOX_R_SQUARED 0.94, PBLUC_HILL_SLOPE 11.3, PBLUC_R_SQUARED 0.644, read-out: LUCIFERASE INFECTION ASSAY - IC50”, the IC50 amounted to 3.07 µM.
In the case of `CN(C)C(=O)c1nnsc1S(=O)(=O)c1ccc(Cl)cc1`, the IC90 was greater than 9.95 µM. In addition, the IC50 under setting [1] came out at 8.45 µM.
Consider `Cc1ccc2c(c1)CCCN2CC(=O)Nc1sccc1C(N)=O`, for which the IC90 is greater than 10 µM. Also, the IC50 under setting [1] was greater than 10 µM.
Consider `Cc1c(-c2cc(-c3ccc(Cl)cc3)nc3ccccc23)oc2ccc(F)cc2c1=O`, for which the IC90 is greater than 10 µM. Also, the IC50 under setting [1] was greater than 10 µM.
As to `Cn1cnnc1SCC(=O)NC(Cc1c[nH]c2ccccc12)C(=O)O` (centres undefined), the IC90 was greater than 10 µM. Besides, under setting [1], the IC50 was greater than 10 µM.
For `CSc1sc(Cl)c(-c2ccc(Cl)cc2)c1C#N`, the IC90 was greater than 11 µM. The IC50 under setting [1] was greater than 11 µM.
`O=C1C=C/C(=N\Nc2ccc3ccccc3c2)c2cccnc21`: the IC90 came out at 1.15 µM. In addition, the IC50 (HEPG2TOX_HILL_SLOPE 0.424, HEPG2TOX_R_SQUARED 0.848, PBLUC_HILL_SLOPE 2.17, PBLUC_R_SQUARED 0.805, read-out: LUCIFERASE INFECTION ASSAY - IC50) turned out to be 0.42 µM.

Source of the values: ChEMBL document CHEMBL4483862, “Open-source discovery of chemical leads for next-generation chemoprotective antimalarials” (2018).
